The results in this text go back to patent US4045298A, “Antibiotic XK-62-2 and process for production thereof” (priority 1972, dated 1977).

The test system of data set [1] is Bacillus subtilis No. 10707. The experiment in a line: Activity (unit/mg) of isolated preparations; paper disk method using an agar plate. It counts as cell-based. On the procedure: After the completion of fermentation, the culture liquor is adjusted to a pH of 2.0 with 12N sulfuric acid and stirred for 30 minutes. Then, about 10 kg of a filter aid, Radiolite No. 600 (product of Showa Kagaku Kogyo Co., Ltd., Japan) is added thereto and the microbial cells are removed by filtration. The filtrate is adjusted to a pH of 8.0 with 6N sodium hydroxide and passed through a column packed with about 50 l of a cation exchange resin, Amberlite IRC-50 (ammonia form). The active substance is adsorbed on the resin and the eluate is discarded. After washing the resin with water, the active substance is eluted out with 1N aqueous ammonia.
Active fractions are combined and concentrated in vacuo to about 5 l. The concentrate is then adjusted to a pH of 8.0 with 6N sulfuric acid and passed through a column packed with 1 l of an anion exchange resin, Dowex 1×2 (OH^- form). The column is washed with about 5 l of water and the effluent and the washings containing active substance are combined and are concentrated to 1/15 by volume. […] The resultant precipitate is removed by filtration and the filtrate is concentrated to 500 ml. The concentrate is adjusted to a pH of 4.5 with 6N sulfuric acid and 2.5 l of methanol is added thereto. […] The precipitate is separated by filtration and washed with methanol.
After the completion of fermentation, the culture liquor is adjusted to a pH of 2.0 with 12N sulfuric acid and stirred for 30 minutes. Then, about 10 kg of Radiolite No. 600 (trade name) is added thereto and the microbial cells are removed by filtration. The filtrate is adjusted to a pH of 8.0 with 6N sodium hydroxide and passed through a column packed with about 50 l of a cation exchange resin, Amberlite IRC-50 (ammonia form). The eluate is discarded. After washing the resin with water, the active substance is eluted out with 1N aqueous ammonia.

Data set [2] deals with Proteus vulgaris ATCC 6897. As to the kind of experiment: Minimum inhibitory concentration by agar dilution method. It counts as cell-based. The note with it: ATCC6897, read-out: Minimum inhibitory concentration. The source says: Antibacterial spectra of XK-62-2 by agar
(§1) The comparative in vitro activities of these antibiotics against various microorganisms of the genus Proteus are shown in the following Table 6.
(§2) Minimum inhibitory concentration
(§3) (γ/ml : by agar dilution method)
For orientation: In agar dilution, organisms are placed on agar that contains the substance at set levels.

Data set [3] relates to Proteus mirabilis Finland 9. The data set is described as above. The note with it: FINLAND9, read-out: Minimum inhibitory concentration. It counts as cell-based.
Excerpt: as §1, §2, §3

In data set [4] the test system is Proteus mirabilis No. 39. The description is as above. It counts as cell-based. As to conditions: NO.39, read-out: Minimum inhibitory concentration.
Excerpt: as §1, §2, §3

Data set [5] has as its system Proteus mirabilis No. 825. The data set is described as above. It counts as cell-based. The note with it: NO.825, read-out: Minimum inhibitory concentration.
Excerpt: as §1, §2, §3

Data set [6] deals with Proteus morganii Jenkins. The description is as above. It counts as cell-based. As to conditions: Morganella morganii, read-out: Minimum inhibitory concentration.
Excerpt: as §1, §2, §3

Data set [7] has as its system Proteus rettgeri Booth. Described as above. It counts as cell-based. As to conditions: Providencia rettgeri, read-out: Minimum inhibitory concentration.
Excerpt: as §1, §2, §3

For data set [8], the system named is Proteus rettgeri Hambrook. Described as above. It is filed as cell-based. The note with it: Providencia rettgeri, read-out: Minimum inhibitory concentration.
Excerpt: as §1, §2, §3

In data set [9] the test system is Proteus vulgaris Abbott JJ. The data set is described as above. It is filed as cell-based. As to conditions: read-out: Minimum inhibitory concentration.
Excerpt: as §1, §2, §3

Data set [10] relates to Pseudomonas aeruginosa KY 4276. Described as above. It is filed as cell-based. The note with it: KY4276, clinical isolate, Table 7.
Excerpt: as §2, §3

The subject of data set [11] is Pseudomonas aeruginosa KY 8510. Described as above. As to conditions: Pseudomonas aeruginosa, KY8510; agar dilution; clinical isolate; Table 7. It is filed as cell-based.
Excerpt: as §2, §3

Data set [12] relates to Pseudomonas aeruginosa KY 8511. The data set is described as above. As to conditions: KY8511, clinical isolate, Table 7. It counts as cell-based.
Excerpt: as §2, §3

The test system of data set [13] is Pseudomonas aeruginosa KY 8512. The description is as above. It is filed as cell-based. As to conditions: KY8512, clinical isolate, Table 7.
Excerpt: as §2, §3

The subject of data set [14] is Pseudomonas aeruginosa KY 8514. The data set is described as above. It counts as cell-based. The note with it: KY8514, clinical isolate, Table 7.
Excerpt: as §2, §3

Data set [15] deals with Pseudomonas aeruginosa KY 8515. The data set is described as above. It counts as cell-based. As to conditions: KY8515, clinical isolate, Table 7.
Excerpt: as §2, §3

In data set [16] the test system is Pseudomonas aeruginosa KY 8516. Described as above. It is filed as cell-based. The note with it: Pseudomonas aeruginosa, KY8516; agar dilution; clinical isolate; Table 7.
Excerpt: as §2, §3

The test system of data set [17] is Pseudomonas aeruginosa KY 8520. Described as above. It counts as cell-based. The note with it: KY8520, clinical isolate, Table 7.
Excerpt: as §2, §3

In data set [18] the test system is Pseudomonas aeruginosa KY 8562. The description is as above. It is filed as cell-based. The note with it: KY8562, clinical isolate, Table 7.
Excerpt: as §2, §3

The test system of data set [19] is specific enzyme system which inactivates gentamicin C1a or kanamycin by acetylating. It is filed as biochemical, Pseudomonas aeruginosa. The note with it: acetylating enzyme of KY 8510 and 8516 strains.
Data set [20] can be described thus: Solubility. It is filed as physicochemical.
[21] abbreviates: Example 2, free base, Mm-628 ATCC 21827.
The mark [22] stands for this setting: Example 6, free base, Micromonospora purpurea ATCC 15835.
[23] abbreviates: Example 7, free base, Micromonospora echinospora ATCC 15837 NRRL 2985.
[24] abbreviates: Example 7, free base, Micromonospora echinospora var. ferruginea NRRL 2995.
The mark [25] stands for this setting: Example 7, free base, Micromonospora echinospora var. pallida NRRL 2996.

Converted amounts (≈) assume the structure as drawn. “Also recorded” adds a separate entry of the source.

On to `CN[C@@H]1[C@@H](O)[C@@H](O[C@@H]2[C@@H](O)[C@H](O[C@H]3O[C@H]([C@@H](C)NC)CC[C@H]3N)[C@@H](N)C[C@H]2N)OC[C@]1(C)O` [gentamicin C1, reference compound], for which the Activity in data set [1] (setting [21]) was found to be 880 unit/mg; in [1] (setting [22]) it was 821 unit/mg; in data set [1] (setting [23]), 906 unit/mg; in data set [1] (setting [24]) it was 830 unit/mg; in data set [1] (setting [25]), 940 unit/mg.

In the case of `CN[C@@H]1[C@@H](O)[C@@H](O[C@@H]2[C@@H](O)[C@H](O[C@H]3O[C@H]([C@@H](C)N)CC[C@H]3N)[C@@H](N)C[C@H]2N)OC[C@]1(C)O` [gentamicin C2, reference compound], the Activity stood at 925 unit/mg in [1] (setting [21]); 880 unit/mg in data set [1] (setting [22]); 845 unit/mg in data set [1] (setting [23]); 853 unit/mg in data set [1] (setting [24]); 859 unit/mg in data set [1] (setting [25]).

Take `NC[C@H]1O[C@H](O[C@H]2[C@H](O)[C@@H](O[C@H]3O[C@H](CO)[C@@H](O)[C@H](N)[C@H]3O)[C@H](N)C[C@@H]2N)[C@H](O)[C@@H](O)[C@@H]1O` [kanamycin]: the MIC in data set [2] amounted to 0.34 µg/mL (≈ 0.702 µM); in data set [3] it was 0.04 µg/mL (≈ 0.0826 µM); in data set [4] it was 0.33 µg/mL (≈ 0.681 µM); in [5], 0.04 µg/mL (≈ 0.0826 µM); in data set [6], 0.16 µg/mL (≈ 0.33 µM); in data set [7] it was 0.08 µg/mL (≈ 0.165 µM). For the same molecule, the MIC in [8] stood at 0.08 µg/mL (≈ 0.165 µM); in data set [9], 0.16 µg/mL (≈ 0.33 µM); in data set [10] it was 1.63 µg/mL (≈ 3.36 µM); in [11], 13 µg/mL (≈ 26.8 µM); in data set [12], 13 µg/mL (≈ 26.8 µM); in data set [13], 3.3 µg/mL (≈ 6.81 µM). Moreover, the MIC is 208 µg/mL (≈ 429 µM) in data set [14]; 416 µg/mL (≈ 859 µM) in data set [15]; 26 µg/mL (≈ 53.7 µM) in [16]; 104 µg/mL (≈ 215 µM) in [17]; 167 µg/mL (≈ 345 µM) in data set [18]. Further, the “Inactivation by acetylation (6'-NH2)” value in data set [19] was “inactivates”.

As to `[H]/N=C(/N)N[C@H]1[C@H](O)[C@@H](O)[C@H](O[C@@H]2O[C@@H](C)[C@](O)(C=O)[C@H]2O[C@@H]2O[C@@H](CO)[C@H](O)[C@@H](O)[C@@H]2NC)[C@@H](N/C(N)=N\[H])[C@@H]1O` [streptomycin], the MIC in data set [2], in data set [3], in data set [4], in data set [5], in [6] and in data set [7] was more than 40 µg/mL throughout. The MIC is more than 40 µg/mL in [8]; more than 40 µg/mL in data set [9]; 2.6 µg/mL (≈ 4.47 µM) in data set [10]; 0.65 µg/mL (≈ 1.12 µM) in [11]; more than 2500 µg/mL in [12]; 42 µg/mL (≈ 72.2 µM) in [13]. The MIC in [14] was found to be 156 µg/mL (≈ 268 µM); in [15] it was 624 µg/mL (≈ 1070 µM); in [16], 0.65 µg/mL (≈ 1.12 µM); in data set [17] it was 5.2 µg/mL (≈ 8.94 µM); in [18], 156 µg/mL (≈ 268 µM).

In data set [1] (Example 4, sulfate), `CNC[C@@H]1CC[C@@H](N)[C@@H](O[C@H]2[C@H](O)[C@@H](O[C@H]3OC[C@](C)(O)[C@H](NC)[C@H]3O)[C@H](N)C[C@@H]2N)O1` [sulfate of XK-62-2] had an Activity of 792 unit/mg. For the same molecule, the Solubility in acetone result in data set [20] (acetone) is “insoluble”. Further, in data set [20] (methanol), the Solubility in methanol result is “poorly soluble; also recorded: insoluble”. In addition, the Solubility in water entry in [20] (water) is “very soluble”.
